The values that follow come from the Kinase Knowledgebase extract (Sharma et al. 2016).

Broadly, the EC50 is the concentration giving half of the maximal effect. A low value points to a more potent agent. A word on the IC50: it is the concentration that gives 50% inhibition.

Assay [1] concerns the target PIK3CB (Human) (UniProt P42338). Description: Cell-Based Assay. The note with it: mda-mb-468.
Assay [2] shares this target. Description: Enzyme Assay.

Sequence of PIK3CB (Human) (P42338 whole entry, looked up): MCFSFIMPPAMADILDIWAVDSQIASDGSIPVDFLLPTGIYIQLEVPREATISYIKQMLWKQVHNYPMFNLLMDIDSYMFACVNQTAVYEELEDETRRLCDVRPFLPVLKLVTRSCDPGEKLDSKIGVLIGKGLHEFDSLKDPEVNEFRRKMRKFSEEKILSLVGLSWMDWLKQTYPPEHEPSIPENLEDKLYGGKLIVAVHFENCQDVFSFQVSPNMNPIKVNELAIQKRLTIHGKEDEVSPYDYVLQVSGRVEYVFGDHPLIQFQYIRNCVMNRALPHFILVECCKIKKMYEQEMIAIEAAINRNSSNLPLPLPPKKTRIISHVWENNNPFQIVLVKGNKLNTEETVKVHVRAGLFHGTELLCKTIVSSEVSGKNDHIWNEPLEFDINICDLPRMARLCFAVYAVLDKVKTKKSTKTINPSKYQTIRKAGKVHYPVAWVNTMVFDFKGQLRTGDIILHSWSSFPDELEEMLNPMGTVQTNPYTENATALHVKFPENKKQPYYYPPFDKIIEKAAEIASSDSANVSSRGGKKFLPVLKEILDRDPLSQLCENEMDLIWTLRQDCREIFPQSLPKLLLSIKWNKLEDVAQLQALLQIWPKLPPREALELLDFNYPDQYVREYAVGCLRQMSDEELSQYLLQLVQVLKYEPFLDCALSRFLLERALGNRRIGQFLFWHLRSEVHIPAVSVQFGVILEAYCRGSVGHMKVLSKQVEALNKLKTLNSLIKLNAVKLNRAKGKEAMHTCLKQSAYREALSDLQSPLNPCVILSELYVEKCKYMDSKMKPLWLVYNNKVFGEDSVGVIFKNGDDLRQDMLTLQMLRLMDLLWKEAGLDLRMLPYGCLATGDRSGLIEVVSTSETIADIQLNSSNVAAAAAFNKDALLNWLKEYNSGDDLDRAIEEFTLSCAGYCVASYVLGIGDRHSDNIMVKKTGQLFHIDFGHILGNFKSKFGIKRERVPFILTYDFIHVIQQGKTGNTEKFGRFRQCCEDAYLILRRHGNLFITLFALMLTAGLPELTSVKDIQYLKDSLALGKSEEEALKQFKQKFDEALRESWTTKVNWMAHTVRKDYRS

Take `Cc1c(Cc2cnn3c(O)cc(N4CCOCC4)nc23)cccc1C(F)(F)F`: at PIK3CB (Human) [1], the EC50 came to 3.16 µM.
On to `Cc1nn2c(O)cc(N3CCOCC3)nc2c1Cc1cccc2ccccc12`, for which, at PIK3CB (Human) [1], the EC50 is 3.98 µM.
On PIK3CB (Human) [2], `Cc1c(Cc2c(O)nn3c(O)cc(C4CCOCC4)nc23)cccc1C(F)(F)F` displayed an IC50 of 0.0631 µM.
On to `Nc1nn2c(O)cc(C3CCOCC3)nc2c1Cc1cccc(Cl)c1Cl`, for which the EC50 on PIK3CB (Human) [1] worked out at 10 µM.
As for `CC1=NC(=O)C2SC(N3CCOCC3)=NC2N1Cc1cccc(C(F)(F)F)c1C` (configuration not stated), the IC50 at PIK3CB (Human) [2] worked out at 0.000631 µM.
Take `Cc1nn2c(NC(N)=O)cc(N3CCOCC3)nc2c1Cc1cccc(C(F)(F)F)c1C`: at PIK3CB (Human) [1], the EC50 came out at 1.26 µM.
Still for that read-out and setting: then `Cc1nn2c(O)cc(C3CCOCC3)nc2c1Cc1cccc(C(F)(F)F)c1C`, with 15.8 µM; and `COc1nn2c(O)cc(-c3ccncc3)nc2c1Cc1cccc(Cl)c1Cl`, with 25.1 µM; and `Cc1nn2c(C(=O)O)cc(N3CCOCC3)nc2c1Cc1cccc(C(F)(F)F)c1C`, with 3.16 µM.
On PIK3CB (Human) [1], `Cc1nn2c(O)cc(N3CCOCC3)nc2c1Cc1cccc(C(F)(F)F)c1C` yielded an EC50 of 5.01 µM.
`Cc1c(Cc2cnn3c(O)cc(-c4ccncc4)nc23)cccc1C(F)(F)F` came in with an EC50 at PIK3CB (Human) [1] of 15.8 µM.
On to `Cc1nn2c(C(N)=O)cc(N3CCOCC3)nc2c1Cc1cccc(C(F)(F)F)c1C`, for which the EC50 at PIK3CB (Human) [1] was 2 µM.
